# Test results from patent US20090005435A1, “Novel Compounds, Pharmaceutical Compositions Containing Same, and Methods of Use for Same” (priority 2004, published 2009).
# How the values were obtained:
# Assay type in all cases: cell-based
# [1] = tested on: Escherichia coli (ATCC #25922); assay: Broth microdilution MIC, E. coli
# Description: (§1) A broth microdilution assay is used to assess the antimicrobial activity of the compounds. Compounds are tested at twofold serial dilutions, and the concentration that inhibits visible growth (OD600 at 10% of control) is defined as the MIC. Microorganisms tested include Staphylococcus aureus (ATCC #29213), Enterococcus faecalis (ATCC #29212), Pseudomonas aeruginosa (ATCC #27853), and Escherichia coli (ATCC #25922). The assay is performed in two growth media, Mueller Hinton Broth and Trypticase Soy Broth.
# (§2) A blood (Tsoy/5% sheep blood) agar plate is inoculated from frozen stocks maintained in T soy broth containing 10% glycerol and incubated overnight at 37° C. Colonies are suspended in sterile broth so that the turbidity matches the turbidity of a 0.5 McFarland standard. The inoculum is diluted 1:10 in sterile broth (Mueller Hinton or Trypticase soy) and 195 ul is dispensed per well of a 96-well plate. […]
# (§3) After 24 hours of incubation at 37° C., plates are read at OD600 on a Molecular Devices SpectraMax Plus Spectrophotometer. Average OD600 values are computed using SOFTmax Pro Software (Molecular Devices) and MIC values are determined by linear regression analysis using Prism version 3.02 (Graph Pad Software, San Diego). […]
# [2] = tested on: Enterococcus faecalis (ATCC #29212); assay: Broth microdilution MIC, E. faecalis
# Description: as §1, §2, §3
# [3] = tested on: MCF-7 human breast cancer cells; assay: Crystal violet cell growth assay; conditions: MCF7, MCF-7 cells, read-out: Cr. Violet (IC50)
# Description: Crystal Violet Cell Growth Assay
# The crystal violet assay measure cell growth but not cytotoxicity. This assay employs crystal violet staining of fixed cells in 96-well plates with subsequent solubilization and measurement of OD490 on a spectrophotometer. The OD490 corresponds to cell growth per unit time measured. Cells are treated with the compounds of interest or vehicle controls and IC50 for each compound is computed.
# To measure the cytotoxicity of specific compounds against cancer cells, 5×10^4 MCF-7 human breast cancer cells, obtained from the American Type Culture Collection are plated per well in 24 well plates in DMEM medium with 10% fetal bovine serum, penicillin, and streptomycin. Following overnight culture at 37° C. and 5% CO2, the compounds to be tested, dissolved in DMSO, are added to the wells in 1 μl volume at the following concentrations: 50, 40, 30, 20, and 10 μg/ml in triplicate. […]
# After 72 hours of incubation, cells are stained with 0.5 ml of Crystal Violet stain (0.5% in 25% methanol) in each well. […] Following transfer of 100 μl from each well to a 96-well plate, plates are read at OD490 on a Molecular Devices SpectraMax Plus Spectrophotometer Average OD490 values are computed using SOFTmax Pro Software (Molecular Devices) and IC50 values are determined by linear regression analysis using Prism version 3.02 (Graph Pad Software, San Diego).
# [4] = tested on: Staphylococcus aureus (ATCC #29213); assay: Broth microdilution MIC, S. aureus
# Description: as §1, §2, §3
# [5] = tested on: fatty acid synthesis in MCF-7 human breast cancer cells; assay: [14C]acetate incorporation into total lipids; conditions: MCF-7 cells
# Description: Measurement of [^14C]acetate Incorporation into Total Lipids and Determination of IC50 of Compounds
# This assay measures the incorporation of [^14C]acetate into total lipids and is a measure of fatty acid synthesis pathway activity in vitro. It is utilized to measure inhibition of fatty acid synthesis in vitro.
# MCF-7 human breast cancer cells cultured as above, are plated at 5×10^4 cells per well in 24-well plates. Following overnight incubation, the compounds to be tested, solubilized in DMSO, are added at 5, 10, and 20 μg/ml in triplicate, with lower concentrations tested if necessary. DMSO is added to triplicate wells for a vehicle control. C75 is run at 5 and 10 μg/ml in triplicate as positive controls. After 4 hours of incubation, 0.25 μCi of [^14C]acetate (10 μl volume) is added to each well.
# After 2 hours of additional incubation, medium is aspirated from the wells and 800 μl of chloroform:methanol (2:1) and 700 μl of 4 mM MgCl2 is added to each well. Contents of each well are transferred to 1.5 Eppendorf tubes, and spun at full-speed for 2 minutes in a high-speed Eppendorf Microcentrifuge 5415D. After removal of the aqueous (upper) layer, an additional 700 μl of chloroform:methanol (2:1) and 500 μl of 4 mM MgCl2 are added to each tube and then centrifuged for 1 minutes as above. […] Once dried, 3 ml of scintillant (APB #NBC5104) is added and vials are counted for ^14C. […]
smiles,measurement,setting,value
"C=CCC1(CC=C)C(=O)SC(C)(CCCCCCCC)C1=O (racemic) [Compound 4, 3,3-Diallyl-5-methyl-5-octyl-thiophene-2,4-dione]",Ecoli/MH (MIC),[1]; Mueller Hinton Broth,Neg
same,Ecoli/Tsoy,[1]; Trypticase Soy Broth,Neg
same,MIC,"[2]; Enterococcus faecalis, ATCC29212, Trypticase Soy Broth, read-out: EF/Tsoy (MIC)",169 µg/mL
same,EF/MH (MIC),[2]; Mueller Hinton Broth,Neg
same,IC50,[3],15 ± 7.7 µg/mL
same,SA/MH (MIC),[4]; Mueller Hinton Broth,Neg
same,MIC,"[4]; Staphylococcus aureus, ATCC29213, Trypticase Soy Broth, read-out: SA/Tsoy (MIC)",98 µg/mL
same,14C (IC50),[5],Neg
